According to US20220177510A1, “DERIVATIVES OF GYLCERO-MANNO-HEPTOSE ADP FOR USE IN MODULATING IMMUNE RESPONSE” (priority 2019, published 2022):

Key:
[1] = molecular target: T1, ALPK1 (Homo sapiens, UniProt Q96QP1); test: NF-kB promoter driven alkaline phosphatase reporter in HEK293 cells (pNPP assay); type: cell-based; conditions: HEK293-NFkB-AP reporter cells treated 7 hours
T1 construct: endogenous in cells; host or cells: HEK293 (A1); HEK293 stably expressing an NF-kB-alkaline phosphatase reporter (A2)
Method: NF-kB activation was assayed using HEK293 cells stably expressing an NF-kB reporter construct comprising an NF-kB promoter driving expression of alkaline phosphatase (AP). In this system, activation of NF-kB promoter activity drives the expression of AP which is detected using a chromogenic substrate, para-nitrophenyl phosphate (pNPP).
To assess the ALPK1 agonist activity of test compounds, the HEK293 cells were seeded in 96-well plates and allowed to attach overnight. Cells were then exposed to graded concentrations of compounds A1, A2, A3, A4, A18, A26, A27, A28, and A30. Compound 28 was included as a reference. Following treatment, cell culture supernatants were collected and analyzed for alkaline phosphatase activity using the pNPP assay. The results are shown in FIGS. 7A-7B and Table 2B-C below. The EC50 for each compound was determined using GraphPad Prism.

[2] = molecular target: T1, ALPK1; test: IL-8 secretion by HEK293 cells (IL-8 ELISA) as indication of ALPK1 activation; type: cell-based; conditions: HEK293 cells treated 4 hours, FIG. 6, Table 2A
Method: HEK293 cells were treated with H1b-ADP derivatives (A1, A2, A3, and A4) or with Compound 28 for 4 hours followed by analysis of IL-8 secretion using an IL-8 enzyme linked immunoassay (ELISA). IL-8 secretion is an indication of ALPK1 activation. The EC50 of each compound was determined using GraphPad Prism.

T1 sequence (Q96QP1 whole entry): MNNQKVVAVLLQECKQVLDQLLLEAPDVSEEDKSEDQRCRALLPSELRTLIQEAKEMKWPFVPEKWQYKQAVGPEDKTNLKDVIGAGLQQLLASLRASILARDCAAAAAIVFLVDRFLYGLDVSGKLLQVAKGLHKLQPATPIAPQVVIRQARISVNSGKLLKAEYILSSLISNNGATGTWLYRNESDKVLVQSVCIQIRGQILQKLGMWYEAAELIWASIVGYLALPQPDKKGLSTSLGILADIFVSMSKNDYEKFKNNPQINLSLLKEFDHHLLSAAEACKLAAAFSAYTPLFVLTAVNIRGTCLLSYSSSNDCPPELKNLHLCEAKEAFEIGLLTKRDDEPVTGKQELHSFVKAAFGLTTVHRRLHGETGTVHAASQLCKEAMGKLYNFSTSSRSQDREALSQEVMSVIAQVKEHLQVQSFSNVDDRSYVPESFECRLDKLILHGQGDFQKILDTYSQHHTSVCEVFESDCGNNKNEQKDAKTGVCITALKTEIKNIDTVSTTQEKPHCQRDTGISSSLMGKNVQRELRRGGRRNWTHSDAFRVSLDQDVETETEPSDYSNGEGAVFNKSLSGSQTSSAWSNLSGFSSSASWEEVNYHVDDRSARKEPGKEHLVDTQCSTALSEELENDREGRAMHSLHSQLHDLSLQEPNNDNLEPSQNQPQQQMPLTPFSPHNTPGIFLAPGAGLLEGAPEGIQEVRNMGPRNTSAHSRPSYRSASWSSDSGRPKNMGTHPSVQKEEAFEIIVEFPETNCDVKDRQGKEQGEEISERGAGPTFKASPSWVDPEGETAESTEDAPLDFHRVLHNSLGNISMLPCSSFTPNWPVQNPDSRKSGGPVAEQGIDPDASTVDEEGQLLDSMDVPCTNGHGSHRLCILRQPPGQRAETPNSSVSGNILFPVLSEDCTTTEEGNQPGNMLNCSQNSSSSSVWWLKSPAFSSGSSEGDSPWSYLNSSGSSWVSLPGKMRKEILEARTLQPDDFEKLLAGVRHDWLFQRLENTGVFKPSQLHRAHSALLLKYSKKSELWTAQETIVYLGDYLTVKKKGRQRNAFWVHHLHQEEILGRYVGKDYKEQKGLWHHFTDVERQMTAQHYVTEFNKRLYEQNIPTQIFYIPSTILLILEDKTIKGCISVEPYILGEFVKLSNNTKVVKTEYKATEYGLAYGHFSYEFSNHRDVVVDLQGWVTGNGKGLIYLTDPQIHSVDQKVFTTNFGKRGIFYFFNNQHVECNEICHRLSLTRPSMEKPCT

With `CC(=O)OC[C@H](F)[C@H]1O[C@@H](OP(=O)(O)OP(O)(=S)OC[C@H]2O[C@@H](c3coc4c(N)ncnc34)[C@H](O)[C@@H]2O)[C@@H](OC(C)=O)[C@@H](OC(C)=O)[C@@H]1OC(C)=O` (stereo partly drawn) [Compound A28, (2S,3S,4S,5S,6S)-2-((S)-2-acetoxy-1-fluoroethyl)-6-(((((((2R,3S,4R,5S)-5-(4-aminofuro[3,2-d]pyrimidin-7-yl)-3,4-dihydroxytetrahydrofuran-2-yl)methoxy)(hydroxy)phosphorothioyl)oxy)(hydroxy)phosphoryl)oxy)tetrahydro-2H-pyran-3,4,5-triyl triacetate] as the compound, how does the EC50 ([1]; FIG. 7B, Table 2C) read?
The EC50 was 3.9 nM.

How did the EC50 ([1]; FIG. 7B, Table 2C) turn out when `CC(=O)OC[C@H](F)[C@H]1O[C@@H](OP(=O)(O)OP(O)(=S)OC[C@H]2O[C@@H](n3ncc4c(N)ncnc43)[C@H](O)[C@@H]2O)[C@@H](OC(C)=O)[C@@H](OC(C)=O)[C@@H]1OC(C)=O` (stereo partly drawn) [Compound A26, (2S,3S,4S,5S,6S)-2-((S)-2-acetoxy-1-fluoroethyl)-6-(((((((2R,3S,4R,5R)-5-(4-amino-1H-pyrazolo[3,4-d]pyrimidin-1-yl)-3,4-dihydroxytetrahydrofuran-2-yl)methoxy)(hydroxy)phosphorothioyl)oxy)(hydroxy)phosphoryl)oxy)tetrahydro-2H-pyran-3,4,5-triyl triacetate] was run?
Its EC50 is 10100 nM.

How did the EC50 [2] turn out when `CCCCCCCCCCCCCC(=O)OC[C@H](F)C1O[C@@H](OP(=O)(O)OP(O)(=S)OC[C@H]2O[C@@H](n3cnc4c(N)ncnc43)C(O)C2O)C(OC(C)=O)C(OC(C)=O)[C@@H]1OC(C)=O` (stereo partly drawn) [Compound A3, (2S,3S,4S,5S,6S)-2-(((((((2R,3S,4R,5R)-5-(6-amino-9H-purin-9-yl)-3,4-dihydroxytetrahydrofuran-2-yl)methoxy)(hydroxy)phosphorothioyl)oxy)(hydroxy)phosphoryl)oxy)-6-((S)-1-fluoro-2-(tetradecanoyloxy)ethyl)tetrahydro-2H-pyran-3,4,5-triyl triacetate] was run?
Its EC50 is 2 nM.

And the EC50 ([1]; FIG. 7A, Table 2B)?
The EC50 was 3.9 nM.

With `CCCCCCCCCCCC(=O)OC[C@H](F)C1O[C@@H](OP(=O)(O)OP(O)(=S)OC[C@H]2O[C@@H](n3cnc4c(N)ncnc43)C(O)C2O)C(OC(C)=O)C(OC(C)=O)[C@@H]1OC(C)=O` (stereo in doubt) [Compound A2, 2S,3S,4S,5S,6S)-2-(((((((2R,3S,4R,5R)-5-(6-amino-9H-purin-9-yl)-3,4-dihydroxytetrahydrofuran-2-yl)methoxy)(hydroxy)phosphorothioyl)oxy)(hydroxy)phosphoryl)oxy)-6-((S)-2-(dodecanoyloxy)-1-fluoroethyl)tetrahydro-2H-pyran-3,4,5-triyl triacetate] as the compound, how does the EC50 [2] read?
The EC50 was 7.1 nM.

What about the EC50 ([1]; FIG. 7A, Table 2B) of the same compound?
The EC50 was 11.9 nM.

How did the EC50 ([1]; FIG. 7B, Table 2C) turn out when `CC(=O)OC[C@H](F)[C@H]1O[C@@H](OP(=O)(O)OP(O)(=S)OC[C@H]2O[C@@H](c3csc(C(N)=O)c3N)[C@H](O)[C@@H]2O)[C@@H](OC(C)=O)[C@@H](OC(C)=O)[C@@H]1OC(C)=O` (stereo partly drawn) [Compound A30, (2S,3S,4S,5S,6S)-2-((S)-2-acetoxy-1-fluoroethyl)-6-(((((((2R,3S,4R,5S)-5-(4-amino-5-carbamoylthiophen-3-yl)-3,4-dihydroxytetrahydrofuran-2-yl)methoxy)(hydroxy)phosphorothioyl)oxy)(hydroxy)phosphoryl)oxy)tetrahydro-2H-pyran-3,4,5-triyl triacetate] was run?
The EC50 was 42.3 nM.

With `CC(=O)OC[C@H](F)C1O[C@@H](OP(=O)(O)OP(O)(=S)OC[C@H]2O[C@@H](n3cnc4c(NC(=O)c5ccccc5)ncnc43)C(O)C2O)C(OC(C)=O)C(OC(C)=O)[C@@H]1OC(C)=O` (stereo partly drawn) [Compound A27, (2S,3S,4S,5S,6S)-2-((S)-2-acetoxy-1-fluoroethyl)-6-(((((((2R,3S,4R,5R)-5-(6-benzamido-9H-purin-9-yl)-3,4-dihydroxytetrahydrofuran-2-yl)methoxy)(hydroxy)phosphorothioyl)oxy)(hydroxy)phosphoryl)oxy)tetrahydro-2H-pyran-3,4,5-triyl triacetate] as the compound, how does the EC50 ([1]; FIG. 7B, Table 2C) read?
The EC50 was 37.8 nM.
